US8592421B2, “Cyclic bioisosters of purine system derivatives and a pharmaceutical composition based thereon” (priority 2003, dated 2013)

Columns and labels:
[1] = Morphine abstinence model: thymus condition (mass, nitrites); type: in vivo, rats; conditions: for Nitrites in thymus supernatant: control 0.331 ± 0.041; for Thymus mass: control 230 ± 14
Source text: The spectrometric method is based the reaction of nitrites with the Griss reagent (a mixture of 2% solution of sulfanilamide and 0.2% N-(1-naphthyl)ethylene diamine. At the first step the nitrite reacts with sulfanilamide with formation of diazonium salt, and then with the second component to form azo dye with an adsorption maximum at 540 nm. For reduction of nitrates into nitrites, a fermentative method was used with bacterial reductase nitrate (Grisham M. B. et al., 1995). The samples of plasma and supernathant of the liver deproteinizated at 100° C. for 5 minutes incubated for 30 minutes at 37° C. in 50.0 mM of HEPES pH 7.4 in the presence of 0.2 unit/ml of Aspergillus reductase nitrate, 5.0 mkM of FAD and 0.1 mM of NAD-Ph. At the end of the reaction lactate dehydrogenase and pyruvate were added for isolation of NAD-Ph interfering with the Griss reaction. Then the Griss reagent was added and after 10-minute incubation the light absorption of the samples was measured at 540 nm. To amount of NOX^− was calculated using sodium nitrate as a standard.
The effect of the compounds according to the invention on the condition of the thymus of the rats was also investigated: a control group, an experimental group of morphinized animals and an experimental group of animals were first morphinized and then injected with the compounds according to the invention. The experiment was carried out similarly to that described above.

[2] = test system: embryonic fibroblasts of mouse NIH-3T3; test: Effect on endocellular pHi of fibroblasts (microspectrofluorimetry with FDA / BCECF-AM); type: cell-based; conditions: for rise of pHi: fibroblasts in an attached spread state; for change of pHi: medium DME without blood serum, 20 minutes; for increase of pHi of cytosol: medium with 10.0% blood serum, 20 minutes after addition
Description: The effect of the compounds according to the invention on the endocellular pH, embryonic fibroblasts of mouse NIH-3T3 supplied by the All-Russian Collection of Cellular Cultures of the Institute of Cytology of the Russian Academy of Sciences St. Petersburg was investigated. The cells were grown in the DMEM (Sigma) medium containing 2.2 g/l of sodium bicarbonate with addition of 80.0 mkg/ml of gentamicin and 10.0% embryonal veal serum at a temperature of 37° C. in an atmosphere containing 5.0% of carbon dioxide. For these experiments use was also made of a medium buffer with 5.0 mM of HEPES and 15.0 mM of sodium bicarbonate without serum or with addition of 5.0% serum. The cells were calculated with the help of a hemocytometer. A share of the dead cells was determined by colouring trypan blue.
The measurements of the endocellular pHi were carried out with the help of colorants FDA (Sigma) and BCECF-AM (Calbiochem) on a microspectrofluorimeter by a standard technique (Koshevoy Yu. V., Akatov V. S., Grobova M. E. Microspectrofluorimeter for measuring endocellular pH (micro pH)”. Devices and equipment for studies in the field of physical-and-chemical biology and biotechnology. Pushchino, 1990. P. 8-14).
The cells at a temperature of 37° C. were colored within 5 minutes with 5.0 mkM PDA that before the colouring was prepared from a 10.0 mM solution in acetone by dilution for 30 minutes in a phosphatic buffer to 0.1 mM or 2.0 mkM 1.0 mM solution BCECF-AM in DMSO.
The two-wave method of determining pHi was used based on the ratio intensities of fluorescence of the cells on two wavelengths (Akatov V. S. et all), “Endocellular pH and substrate dependence of proliferation of fibroblasts of Chinese hamster, Cytology, 1991, 33 (7), p. 86-94). The fluorescence was excited by light at λ=490 nm, the emission was recorded simultaneously with two photomultipliers on wavelengths λ=535 nm and λ=570 nm. The K-ratio of the fluorescence on two wavelengths was determined with a deduction of the background fluorescence of the medium near the investigated cells for 40-60 individual cells, which are then averaged taking into account the measurement error. A thermostatically controlled table was used that allowed measurements to be conducted at a temperature of 37° C. An account was taken for the photodynamic damage of the pigmented cells during long-time continuous illumination by excited light. The readings were taken from a section of the preparation exposed to light for not more than 5 minutes.
The calibration curves for determining the absolute pHi values by magnitude K were constructed using the Thomas technique (Thomas J. A., Bushbaum R. N., Zimniak A. w Racker E. “Intracellular pH measurements in Ehrlich ascites tumor cells utilizing spectroscopic probe generated in situ”, Biochemistry, 1979, v. 18, p. 2210-2218), for which case the pigmented cells treated for 5-10 minutes with carboxyacidic nigericyn (Calbiochem) at a concentration of 5-10 mkg/ml was placed in a solution with a high content of potassium—130 mM KCl, 1.0 mM MgCl2, 20.0 mM of HEPES) and with pH values from 6.2 to 7.6. The K values were measured in the media with different pH assuming that pHi of the cells equals to the pH of the medium due to the action of nigericyn, which exchanges potassium ions for protons and at a high content of potassium in the medium counterbalances the pH of the medium and cells. Calibration curves were used based on the fluorescence of same medium with addition of 5.0 mkM of fluorescence or BCECF were used to the control the stability of the of the instrument readings.
The cells were colored by pigment BCECF-AM and pHi was measured 10 minutes after incubation in the medium with an appropriate pH value. […]

[3] = Administration of morphine and compound

SMILES	Nitrites in thymus supernatant ([1]; Administration of compounds)	Thymus mass ([1]; Administration of compounds) [mg]	Nitrites in thymus supernatant [1, 3]	Thymus mass [1, 3] [mg]	rise of pHi ([2]; 2.0 mkg/ml, on the average) [unit pHi]	rise of pHi ([2]; 20.0 mkg/ml, on the average) [unit pHi]	change of pHi ([2]; 0.02 mkg/ml)	change of pHi ([2]; 0.2 mkg/ml)	change of pHi ([2]; 2.0 mkg/ml, on the average) [unit pHi]	change of pHi ([2]; 20.0 mkg/ml, on the average) [unit pHi]	change of pHi ([2]; 200 mkg/ml)	change of pHi ([2]; 1000 mkg/ml)	increase of pHi of cytosol ([2]; 0.02 mkg/ml)	increase of pHi of cytosol ([2]; 0.2 mkg/ml, on the average) [unit pH]	increase of pHi of cytosol ([2]; 2.0 mkg/ml, on the average) [unit pH]	increase of pHi of cytosol ([2]; 20.0 mkg/ml)
O=c1[nH][nH]c(=O)c2ncccc12.[Li] [Compound 6, lithium salt of pyrido[2,3-d]-6H-pyridazine-5,8-dione]	0.424 ± 0.04 nmol/mg of protein	242 ± 17	0.419 ± 0.02 nmol/mg of protein	207 ± 14	–	–	–	–	–	–	–	–	–	–	–	–
Nc1cccc2c(=O)[nH][nH]c(=O)c12.[Na] [Compound 15, sodium salt of 5-amino-benzo[d]-3H-pyridazine-1,4-dione]	0.407 ± 0.02 nmol/mg of protein	298 ± 25	0.383 ± 0.02 nmol/mg of protein	214 ± 12	0.10	0.07	no effect was found	no effect was found	0.08	0.08	no effect was found	no effect was found	do not initiate a change of pH	0.1	0.12	do not initiate a change of pH
O=c1[nH]n([C@@H]2O[C@H](CO)[C@@H](O)[C@H]2O)c(=O)c2nc(O)cnc12.[Na].[Na] [Compound 23, disodium salt of 2-hydroxy-7-(β-D-ribofuranosile)pyrazine[2,3—Cl]-6H-pyridazine-5,8-dione]	–	–	–	–	0.10	0.07	no effect was found	no effect was found	0.08	0.08	no effect was found	no effect was found	do not initiate a change of pH	0.1	0.12	do not initiate a change of pH
O=c1[nH][nH]c(=O)c2nccnc12.[Li] [Compound 25, lithium salt of pyrazine[2,3-d]-6H-pyridazine-5,8-dione]	0.417 ± 0.02 nmol/mg of protein	254 ± 14	0.396 ± 0.02 nmol/mg of protein	218 ± 17	–	–	–	–	–	–	–	–	–	–	–	–
Nc1ncc2c(=O)[nH][nH]c(=O)c2n1 [Compound 36, 2-amino-pyrimido[4,5-d]-6H-pyridazine-5,8-dione]	–	–	–	–	0.10	0.07	no effect was found	no effect was found	0.08	0.08	no effect was found	no effect was found	do not initiate a change of pH	0.1	0.12	do not initiate a change of pH
O=c1[nH][nH]c(=O)c2c(Br)ncnc12.[K] [Compound 37, potassium salt of 4-bromine-pyrimido[4,5-D]-6H-pyridazine-5,8-dione]	0.410 ± 0.01 nmol/mg of protein	263 ± 21	0.387 ± 0.01 nmol/mg of protein	228 ± 15	–	–	–	–	–	–	–	–	–	–	–	–
